Reference: ChEMBL document CHEMBL3124910, “Discovery and structure-activity relationships study of novel thieno[2,3-b]pyridine analogues as hepatitis C virus inhibitors” (Bioorg Med Chem Lett, 2014)

Tests used:
[1] = system: Hepatitis C virus; assay: Antiviral activity against HCV genotype 1b infected in human HuH7 cells assessed as inhibition of viral RNA replication after 72 hrs by luciferase reporter gene assay; format: functional, organism-based, Hepacivirus hominis; settings: Huh-7, 72 h
[2] = Cytotoxicity against human HuH7 cells after 72 hrs by MTT assay; format: cell-based, Huh-7
[3] = Cytotoxicity against human LO2 cells after 72 hrs by MTT assay; format: cell-based, L02
[4] = Selectivity index, ratio of CC50 for human HuH7 cells to EC50 for HCV genotype 1b infected in human HuH7 cells; set-up: species or system Huh-7
[5] = Cytotoxicity against human HEK293 cells after 72 hrs by MTT assay; format: cell-based
[6] = system: Hepatitis C virus; assay: Antiviral activity against HCV genotype 1b infected in human HuH7 cells assessed as inhibition of viral RNA replication at 20 uM after 72 hrs by luciferase reporter gene assay; format: functional, Hepacivirus hominis; settings: Huh-7, 72 h
[7] = molecular target: T1, Inhibitor of nuclear factor kappa-B kinase subunit beta (Homo sapiens) (UniProt O14920); assay: Inhibition of human IKKbeta at 10 uM after 40 mins by scintillation counting analysis in presence of [gamma-33P]ATP
T1 sequence (whole entry): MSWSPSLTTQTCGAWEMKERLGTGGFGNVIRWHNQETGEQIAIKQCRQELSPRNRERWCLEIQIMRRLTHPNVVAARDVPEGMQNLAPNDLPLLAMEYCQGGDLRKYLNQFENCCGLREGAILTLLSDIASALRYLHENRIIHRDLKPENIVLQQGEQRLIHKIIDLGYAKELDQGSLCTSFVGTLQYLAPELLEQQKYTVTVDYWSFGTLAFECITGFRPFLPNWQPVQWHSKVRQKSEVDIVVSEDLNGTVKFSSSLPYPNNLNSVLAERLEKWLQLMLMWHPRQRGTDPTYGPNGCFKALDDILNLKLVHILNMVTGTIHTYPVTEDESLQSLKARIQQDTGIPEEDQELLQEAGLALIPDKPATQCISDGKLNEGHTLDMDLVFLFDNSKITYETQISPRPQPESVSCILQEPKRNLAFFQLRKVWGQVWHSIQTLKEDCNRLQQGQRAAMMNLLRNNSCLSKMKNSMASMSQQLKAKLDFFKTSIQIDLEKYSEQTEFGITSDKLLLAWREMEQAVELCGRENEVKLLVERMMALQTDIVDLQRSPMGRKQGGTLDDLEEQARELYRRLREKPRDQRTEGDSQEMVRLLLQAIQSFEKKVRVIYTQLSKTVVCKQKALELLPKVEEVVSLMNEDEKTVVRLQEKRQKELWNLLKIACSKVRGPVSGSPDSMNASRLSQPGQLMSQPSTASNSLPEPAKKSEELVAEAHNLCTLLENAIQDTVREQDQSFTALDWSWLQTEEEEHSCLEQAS

[8] = molecular target: T2, Inhibitor of nuclear factor kappa-B kinase subunit alpha (Homo sapiens) (UniProt O15111); assay: Inhibition of human IKKalpha at 10 uM after 40 mins by scintillation counting analysis in presence of [gamma-33P]ATP
T2 sequence (whole entry): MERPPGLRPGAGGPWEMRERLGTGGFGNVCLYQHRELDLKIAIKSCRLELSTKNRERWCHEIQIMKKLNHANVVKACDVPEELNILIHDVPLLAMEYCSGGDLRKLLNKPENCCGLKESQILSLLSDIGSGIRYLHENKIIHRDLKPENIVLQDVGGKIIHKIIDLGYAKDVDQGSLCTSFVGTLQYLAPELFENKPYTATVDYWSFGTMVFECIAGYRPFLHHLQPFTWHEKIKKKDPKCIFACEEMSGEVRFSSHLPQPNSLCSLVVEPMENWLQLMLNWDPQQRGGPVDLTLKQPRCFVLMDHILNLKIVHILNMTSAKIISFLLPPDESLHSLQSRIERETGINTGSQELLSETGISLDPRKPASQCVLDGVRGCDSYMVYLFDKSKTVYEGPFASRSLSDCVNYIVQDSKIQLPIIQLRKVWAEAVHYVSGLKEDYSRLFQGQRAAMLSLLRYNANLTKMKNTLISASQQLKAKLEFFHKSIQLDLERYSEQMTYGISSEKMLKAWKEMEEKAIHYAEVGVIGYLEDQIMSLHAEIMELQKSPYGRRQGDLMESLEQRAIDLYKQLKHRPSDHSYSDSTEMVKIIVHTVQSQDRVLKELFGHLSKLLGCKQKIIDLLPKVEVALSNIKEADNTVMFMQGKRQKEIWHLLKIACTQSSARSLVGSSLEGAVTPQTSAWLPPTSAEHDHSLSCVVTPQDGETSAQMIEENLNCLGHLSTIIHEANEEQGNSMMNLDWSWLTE

| EC50 [1] [µM] | Structure (SMILES) | CC50 at 72 h [2] [µM] | also measured |
| --- | --- | --- | --- |
| 10.8 | COc1cccc(-c2cc(C(F)(F)F)c3c(N)c(C(=O)N4CCOCC4)sc3n2)c1 | > 20 |  |
| 3.3 | Nc1c(C(=O)N2CCn3c(nnc3C(F)(F)F)C2)sc2nc(-c3ccccc3)cc(C(F)(F)F)c12 | 45.2 | CC50 at 72 h [3]: 40.7 µM; Ratio CC50/EC50 [4]: 13.7; CC50 at 72 h [5]: 28 µM |
| > 20 | Nc1c(C(=O)O)sc2nc(-c3ccccc3)cc(C(F)(F)F)c12 | > 20 |  |
| 5.9 | Nc1c(C(=O)N2CCCCC2)sc2nc(-c3ccccc3)cc(C(F)(F)F)c12 | > 20 |  |
| 5.7 | CCOC(=O)c1sc2nc(-c3ccco3)cc(C(F)(F)F)c2c1N | > 20 |  |
| 14.3 | COc1ccccc1-c1cc(C(F)(F)F)c2c(N)c(C(N)=O)sc2n1 | > 20 |  |
| 5.8 | Cc1cc(-c2ccccc2)nc2sc(C(=O)N3CCOCC3)c(N)c12 | > 20 |  |
| > 20 | Nc1c(C(=O)N2CCOCC2)sc2nc(-c3cnccn3)cc(C(F)(F)F)c12 | > 20 |  |
| 3.9 | Nc1c(C(=O)N2CCOCC2)sc2nc3c(c(C(F)(F)F)c12)CCc1ccccc1-3 | > 100 | CC50 at 72 h [3]: > 100 µM; Ratio CC50/EC50 [4]: >25.6; CC50 at 72 h [5]: 72.7 µM |
| 9.7 | Nc1c(C(=O)N2CCOCC2)sc2nc(C3CC3)cc(C(F)(F)F)c12 | > 20 |  |
| 18.6 | Nc1c(C(=O)N2CCOCC2)sc2nc(-c3ccc(F)cc3)cc(C(F)(F)F)c12 | > 20 |  |
| 8.2 | Nc1c(C(=O)NCc2cccs2)sc2nc(-c3ccccc3)cc(C(F)(F)F)c12 | > 20 |  |
| 9.8 | Nc1c(C(=O)NCc2cccs2)oc2nc(-c3ccccc3)cc(C(F)(F)F)c12 | > 20 |  |
| 10 | CCOC(=O)c1sc2nc(-c3cccs3)cc(C(F)(F)F)c2c1N | > 20 |  |
|  | COc1cccc(-c2cc(C(F)(F)F)c3c(N)c(C(N)=O)sc3n2)c1 | > 20 | inhibition at 20 µM [6]: 45% |
| 17.6 | Nc1c(C(=O)N2CCOCC2)sc2nc(-c3ccccc3F)cc(C(F)(F)F)c12 | > 20 |  |
| 3.5 | CCN(CC)C(=O)c1sc2nc(-c3ccccc3)cc(C(F)(F)F)c2c1N | > 100 | CC50 at 72 h [3]: > 100 µM; Ratio CC50/EC50 [4]: >28.6; CC50 at 72 h [5]: > 100 µM |
| 4 | COc1ccc(-c2cc(C(F)(F)F)c3c(N)c(C(N)=O)sc3n2)cc1 | 46.4 | inhibition [7]: 6%; CC50 at 72 h [3]: 26.2 µM; Ratio CC50/EC50 [4]: 11.6; inhibition [8]: 7%; CC50 at 72 h [5]: 24.7 µM |
| 7.2 | Nc1c(C(=O)N2CCSCC2)sc2nc(-c3ccccc3)cc(C(F)(F)F)c12 | > 20 |  |
| > 20 | COc1ccc(-c2ccc3c(N)c(C(N)=O)sc3n2)cc1 | < 0.4 |  |
| 6.5 | Nc1c(C(=O)N2CCOCC2)sc2nc(-c3cccs3)cc(C(F)(F)F)c12 | > 20 |  |
| 9.6 | Nc1c(C(=O)N2CCNCC2)sc2nc(-c3ccccc3)cc(C(F)(F)F)c12 | > 20 |  |
| 4.5 | O=C(c1cc2c(C(F)(F)F)cc(-c3ccccc3)nc2s1)N1CCOCC1 | > 100 | CC50 at 72 h [3]: > 100 µM; Ratio CC50/EC50 [4]: >22.2; CC50 at 72 h [5]: 92.6 µM |
